Results from patent publication US20230116114A1, “COMPOUNDS AND COMPOSITIONS FOR TREATING CNS DISORDERS” (Blue Oak Pharmaceuticals, Inc., priority 2020, published 2023).

Test system: mice
Assay: SmartCube in vivo neuropharmacological behavioral assay
Procedure, shortened: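 Mice dosed i.p. in NMP (Pharmasolve) 15 min before automated video behavioral testing at several doses (e.g., 0.3-30 mpk). Signatures compared to reference drug classes giving per-class probabilities (0-100); MED is the lowest dose with ≥50% total activity.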

[1] = SmartCube, i.p. 15 min before test, result at the MED

CC(C)N1C2CCCC1c1cc(F)c(F)cc12 [Compound 41, 4,5-Difluoro-12-(propan-2-yl)-12-azatricyclo[6.3.1.0^2,7]dodeca-2,4,6-triene]
++ (5% ≤ X < 25%): AD: antidepressant (percent probability) [1] | AG: analgesic (percent probability) [1] | AP: antipsychotic (percent probability) [1] | AX: anxiolytic (percent probability) [1] | CE: cognitive enhancer (percent probability) [1]
10 to 30 mg/kg: minimal effective dose (Mus musculus, ip, 0.25 h, dose having 50% or more total activity in SmartCube, i.p., read-out: MED (minimal effective dose))
+ (LOQ ≤ X < 5%): HA: hallucinogenic (percent probability) [1] | MS: mood stabilizer (percent probability) [1] | PS (percent probability) [1] | SD: sedative hypnotic (percent probability) [1] | SE: side effects (percent probability) [1] | XG: anxiogenic (percent probability) [1]
+++ (25% ≤ X < 50%): UN: uncharacterized CNS activity (percent probability) [1]
